Data as given in US20240018161A1, “MODULATORS OF CYSTIC FIBROSIS TRANSMEMBRANE CONDUCTANCE REGULATOR” (VERTEX PHARMACEUTICALS INCORPORATED, priority 2020, published 2024).
Like-named read-outs stand apart in the source and are kept apart here. Values belong to the compound of their own block, whether it stands above or below them.

How the values were obtained:
[1] = 13-membered ring
[2] = target: T1, CFTR-mediated chloride transport in human intestinal epithelial enteroid cells (Homo sapiens, UniProt P13569); experiment: Membrane potential dye, Enteroid Assay B; format: cell-based; settings: Enteroid Assay B; for EC50: read-out: Ent. B EC50
T1 sequence (P13569 with tags, fused parts or gaps DEL508-508): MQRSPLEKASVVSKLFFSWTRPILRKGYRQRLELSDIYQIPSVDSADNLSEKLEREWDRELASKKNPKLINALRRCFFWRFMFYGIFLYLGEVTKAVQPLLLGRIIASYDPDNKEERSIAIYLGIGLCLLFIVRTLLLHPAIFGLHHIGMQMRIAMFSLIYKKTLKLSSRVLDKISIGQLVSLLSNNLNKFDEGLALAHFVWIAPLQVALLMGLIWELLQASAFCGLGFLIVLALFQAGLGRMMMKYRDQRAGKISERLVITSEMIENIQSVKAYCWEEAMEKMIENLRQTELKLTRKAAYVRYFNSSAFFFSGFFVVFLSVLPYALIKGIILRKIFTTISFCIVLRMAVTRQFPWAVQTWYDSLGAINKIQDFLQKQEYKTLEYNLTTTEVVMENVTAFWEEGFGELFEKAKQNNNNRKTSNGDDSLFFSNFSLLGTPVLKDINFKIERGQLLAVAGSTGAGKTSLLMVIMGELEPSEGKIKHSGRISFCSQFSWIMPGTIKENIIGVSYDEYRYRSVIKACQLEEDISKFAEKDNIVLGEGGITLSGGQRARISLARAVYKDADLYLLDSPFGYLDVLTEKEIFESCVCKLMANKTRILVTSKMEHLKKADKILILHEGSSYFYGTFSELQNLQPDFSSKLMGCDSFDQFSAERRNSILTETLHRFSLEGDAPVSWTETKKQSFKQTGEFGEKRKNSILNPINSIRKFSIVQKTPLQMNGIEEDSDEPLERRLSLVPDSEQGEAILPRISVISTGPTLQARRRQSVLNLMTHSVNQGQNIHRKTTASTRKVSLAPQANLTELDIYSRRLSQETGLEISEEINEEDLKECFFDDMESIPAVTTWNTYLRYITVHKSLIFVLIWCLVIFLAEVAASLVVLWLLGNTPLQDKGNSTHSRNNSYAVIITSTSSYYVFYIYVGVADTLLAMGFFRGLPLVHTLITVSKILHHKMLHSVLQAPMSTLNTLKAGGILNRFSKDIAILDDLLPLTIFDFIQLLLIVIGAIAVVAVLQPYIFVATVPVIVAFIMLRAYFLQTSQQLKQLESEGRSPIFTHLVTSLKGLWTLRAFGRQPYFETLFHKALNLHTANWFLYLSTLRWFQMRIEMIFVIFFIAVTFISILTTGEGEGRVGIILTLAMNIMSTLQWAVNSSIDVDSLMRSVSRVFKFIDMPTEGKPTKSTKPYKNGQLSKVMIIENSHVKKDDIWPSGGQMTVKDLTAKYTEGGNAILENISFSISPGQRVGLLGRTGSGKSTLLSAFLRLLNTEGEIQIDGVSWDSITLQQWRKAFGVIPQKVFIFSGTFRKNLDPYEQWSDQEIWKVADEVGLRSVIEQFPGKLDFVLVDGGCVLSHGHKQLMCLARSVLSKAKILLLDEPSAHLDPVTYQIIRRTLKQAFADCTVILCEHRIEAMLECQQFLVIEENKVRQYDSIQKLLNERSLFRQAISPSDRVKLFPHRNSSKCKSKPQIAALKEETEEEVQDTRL
Procedure: Base medium (ADF+++) consisted of Advanced DMEM/Ham's F12, 2 mM Glutamax, 10 mM HEPES, […] penicillin/streptomycin.
Bath 1 Buffer consisted of 1 mM MgCl2, 160 mM NaCl, 4.5 mM KCl, 10 mM HEPES, 10 mM Glucose, 2 mM CaCl2.
Chloride Free Buffer consisted of 1 mM Magnesium Gluconate, 2 mM Calcium Gluconate, 4.5 mM Potassium Gluconate, 160 mM Sodium Gluconate, 10 mM HEPES, 10 mM Glucose.
Bath1 Dye Solution consisted of Bath 1 Buffer, 0.04% Pluronic F127, 20 μM Methyl Oxonol, 30 μM CaCCinh-A01, 30 μM Chicago Sky Blue.
Chloride Free Dye Solution consisted of Chloride Free Buffer, 0.04% Pluronic F127, 20 μM Methyl Oxonol, 30 μM CaCCinh-A01, 30 μM Chicago Sky Blue.
3. Enteroid Cell Harvesting and Seeding
Cells were recovered in cell recovery solution, collected by centrifugation at 650 rpm for 5 min at 4° C., resuspended in TryPLE and incubated for 5 min at 37° C. Cells were then collected by centrifugation at 650 rpm for 5 min at 4° C. and resuspended in IEMM containing 10 μM ROCK inhibitor (RI).
5. Membrane Potential Dye, Enteroid Assay B
Briefly, cells were washed 5 times in Bath 1 Buffer. Bath 1 Dye Solution was added and the cells were incubated for 25 min at room temperature. Following dye incubation, cells were washed 3 times in Chloride Free Dye Solution. Chloride transport was initiated by addition of Chloride Free Dye Stimulation Solution and the fluorescence signal was read for 15 min.

[3] = target: T1, CFTR-mediated chloride transport in human intestinal epithelial enteroid cells; experiment: Membrane potential dye, Enteroid Assay A; format: cell-based; settings: for EC50: read-out: Ent. A EC50
In short: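 Membrane potential dye (20 μM methyl oxonol, with 30 μM CaCCinh-A01 and 30 μM Chicago Sky Blue) loaded 25 min at room temperature into ROCK-inhibitor-seeded human enteroid cells. Chloride-free stimulation buffer triggered transport, followed by 15 min fluorescence. % Activity relative to 3 μM/3 μM/300 nM triple-combination control.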

[4] = from Cc1cccc(C)c1-c1cc(OC2CCCC(c3ncc(OC(C)C)cn3)N[C@@H]2CC(C)C)nc(NS(=O)(=O)c2cccc(C(=O)O)c2)n1, amide bond, CDMT/NMM, DMF, 7.3 mM, 60.0 h

SMILES: Cc1cccc(C)c1-c1cc2nc(n1)NS(=N)(=O)c1cccc(c1)C(=O)N1CCN(C(=O)OC(C)(C)C)CC(C1)O2 (centres unmarked)
ring closure, isolated yield ([1]; from Cc1cccc(C)c1-c1cc(Cl)nc(NS(=N)(=O)c2cccc(C(=O)N3CCN(C(=O)OC(C)(C)C)CC(O)C3)c2)n1, snar bond, NaH, DMF, 15.3 mM, 1.5 h): 23%

SMILES: Cc1cccc(C)c1-c1cc2nc(n1)NS(=O)(=O)c1cccc(c1)C(=O)N1C(c3ncc(OC(C)C)cn3)CCCC(O2)[C@H]1CC(C)C (some centres unmarked)
ring closure, isolated yield [1, 4]: 14%

SMILES: Cc1cccc(C)c1-c1cc2nc(n1)NS(=O)(=O)c1cccc(c1)C(=O)N1CC(C)(C)CC(O2)C1CC(C)C (centres unmarked)
ring closure, isolated yield ([1]; from Cc1cccc(C)c1-c1cc(Cl)nc(NS(=O)(=O)c2cccc(C(=O)N3CC(C)(C)CC(O)C3CC(C)C)c2)n1, snar bond, NaH, DMF, 16.4 mM, 25.0 °C, 16.0 h): 23% | ring closure, isolated yield ([1]; from Cc1cccc(C)c1-c1cc(Cl)nc(NS(=O)(=O)c2cccc(C(=O)N3CC(C)(C)CC(O)C3CC(C)C)c2)n1, snar bond, NaH, DMF, 17.8 mM, 25.0 °C, 8.0 h): 72%

SMILES: Cc1cccc(C)c1-c1cc2nc(n1)NS(=O)(=O)c1cccc(c1)C(=O)N1CCN(C(=O)OC(C)(C)C)CC1CO2 (centres unmarked)
ring closure, isolated yield ([1]; from Cc1cccc(C)c1-c1cc(OCC2CN(C(=O)OC(C)(C)C)CCN2)nc(NS(=O)(=O)c2cccc(C(=O)O)c2)n1, amide bond, HATU/DIEA, DMF, 13.8 mM, 25.0 °C, 2.0 h, 2 steps): 81%

SMILES: Cc1cccc(C)c1-c1cc2nc(n1)NS(=O)(=O)c1cccc(c1)C(=O)N1CCN(C(=O)OC(C)(C)C)C[C@H](C1)O2
ring closure, isolated yield ([1]; from Cc1cccc(C)c1-c1cc(Cl)nc(NS(=O)(=O)c2cccc(C(=O)N3CCN(C(=O)OC(C)(C)C)C[C@@H](O)C3)c2)n1, snar bond, NaH, DMF, 33.1 mM, 0.0 °C, 3.5 h): 64%

SMILES: Cc1cccc(C)c1-c1cc2nc(n1)NS(=O)(=O)c1cccc(c1)C(=O)N1CCN(C(=O)OC(C)(C)C)C[C@H]1CO2
ring closure, isolated yield ([1]; from Cc1cccc(C)c1-c1cc(Cl)nc(NS(=O)(=O)c2cccc(C(=O)N3CCN(C(=O)OC(C)(C)C)C[C@H]3CO)c2)n1, snar bond, NaH, NMP, 4.4 mM, 70.0 °C, 2.0 h, 2 steps): 19%

SMILES: Cc1cccc(C)c1-c1cc2nc(n1)NS(=O)(=O)c1cccc(c1)C(=O)N1CCN(C(=O)OCc3ccccc3)C[C@H](C1)O2
ring closure, isolated yield ([1]; from Cc1cccc(C)c1-c1cc(Cl)nc(NS(=O)(=O)c2cccc(C(=O)N3CCN(C(=O)OCc4ccccc4)C[C@@H](O)C3)c2)n1, snar bond, NaH, DMF, 30.4 mM, 5.0 °C, 2.0 h): 44%

SMILES: Cc1cccc(C)c1-c1cc2nc(n1)NS(=O)(=O)c1cccc(c1)C(=O)N1Cc3cc(C(C)(C)C)ccc3C(C1)O2 (centres unmarked)
ring closure, isolated yield ([1]; from Cc1cccc(C)c1-c1cc(OC2CNCc3cc(C(C)(C)C)ccc32)nc(NS(=O)(=O)c2cccc(C(=O)O)c2)n1, amide bond, HATU/NaOtBu, THF/DMF, 25.0 °C, 0.25 h, 3 steps): 14%

EC50 [2]: < 1 µM
SMILES: Cc1cccc(C)c1-c1cc2nc(n1)NS(=O)(=O)c1cccc(c1)C(=O)N1CCc3cc(C(C)(C)C)ccc3C(O2)[C@H]1CC(C)C (single isomer, unassigned) [Compound 237]
ring closure, yield after HPLC (from Cc1cccc(C)c1-c1cc(OC2c3ccc(C(C)(C)C)cc3CCN[C@@H]2CC(C)C)nc(NS(=O)(=O)c2cccc(C(=O)O)c2)n1, amide bond, 13-membered ring, NaOtBu, HATU, THF/DMF, 19.2 mM, 0.0 °C, 0.08 h, 2 steps): 18%

SMILES: Cc1cccc(C)c1-c1cc2nc(n1)NS(=O)(=O)c1cccc(c1)C(=O)N1CCN(C(=O)OCc3ccccc3)CC(O2)[C@H]1C (single isomer, unassigned; diastereomer 1)
ring closure, isolated yield ([1]; from Cc1cccc(C)c1-c1cc(Cl)nc(NS(=O)(=O)c2cccc(C(=O)N3CCN(C(=O)OCc4ccccc4)CC(O)[C@H]3C)c2)n1, snar bond, NaH, DMF, 29.4 mM, 0.0 °C, 1.25 h): 17%

SMILES: Cc1cccc(C)c1-c1cc2nc(n1)NS(=O)(=O)c1cccc(c1)C(=O)N1C(c3ncc(OC(C)C)cn3)CCCC(O2)[C@H]1CC(C)C (single isomer, unassigned; isomer 1)
ring closure, isolated yield ([1]; from Cc1cccc(C)c1-c1cc(OC2CCCC(c3ncc(OC(C)C)cn3)N[C@@H]2CC(C)C)nc(NS(=O)(=O)c2cccc(C(=O)O)c2)n1, amide bond, CDMT/NMM, DMF, 16.3 mM, 24.0 h): 23%

SMILES: Cc1cccc(C)c1-c1cc2nc(n1)NS(=O)(=O)c1cccc(c1)C(=O)N1C(c3ncc(OC(C)C)cn3)CCCC(O2)[C@H]1CC(C)C (single isomer, unassigned; isomer 2)
ring closure, isolated yield [1, 4]: 27%

SMILES: Cc1cccc(C)c1-c1cc2nc(n1)NS(=O)(=O)c1cccc(c1)C(=O)N1C(c3ncc(OC(C)C)cn3)CCCC(CC(C)C)C1CO2 (single isomer, unassigned; isomer a)
ring closure, isolated yield ([1]; from Cc1cccc(C)c1-c1cc(OCC2NC(c3ncc(OC(C)C)cn3)CCCC2CC(C)C)nc(NS(=O)(=O)c2cccc(C(=O)O)c2)n1, amide bond, CDMT/NMM, DMF, 16.2 mM, 40.0 h, 2 steps): 35%

EC50 ([3]; enteroid cells incubated with test compound 18-24 hours, acute 10 μM forskolin and 300 nM N-[2,4-bis(1,1-dimethylethyl)-5-hydroxyphenyl]-1,4-dihydro-4-oxoquinoline-3-carboxamide): < 1 µM
SMILES: Cc1cccc(C)c1-c1cc2nc(n1)NS(=O)(=O)c1cccc(c1)C(=O)N1CCN(C(=O)OC(C)(C)C)CC(C1)O2 (centres unmarked) [Compound 43, tert-Butyl 12-(2,6-dimethylphenyl)-2,8,8-trioxo-15-oxa-8λ^6-thia-1,9,11,18,22-pentaazatetracyclo[14.4.1.13,7.110,14]tricosa-3(23),4,6,10(22),11,13-hexaene-18-carboxylate]
ring closure, isolated yield ([1]; from Cc1cccc(C)c1-c1cc(Cl)nc(NS(=O)(=O)c2cccc(C(=O)N3CCN(C(=O)OC(C)(C)C)CC(O)C3)c2)n1, snar bond, NaH, DMF, 15.5 mM, 25.0 °C, 16.0 h): 56% | Ent. A Max Activity (%) ([3]; percentage of chloride transport of triple combination control (3 μM N-[(6-amino-2-pyridyl)sulfonyl]-6-(3-fluoro-5-isobutoxy-phenyl)-2-[(4S)-2,2,4-trimethylpyrrolidin-1-yl]pyridine-3-carboxamide based)): +++ (+++ is >60%)

Ent. A Max Activity (%) ([3]; Enteroid Assay A): ++ (++ is 30-60%) | EC50 ([3]; Enteroid Assay A): < 1 µM
SMILES: Cc1cccc(C)c1-c1cc2nc(n1)NS(=O)(=O)c1cccc(c1)CN1CC(CN(C(=O)OC(C)(C)C)CC1=O)O2 (centres unmarked) [Compound 77, tert-Butyl 12-(2,6-dimethylphenyl)-8,8,20-trioxo-15-oxa-8λ^6-thia-1,9,11,18,22-pentaazatetracyclo[14.4.1.13,7.110,14]tricosa-3(23),4,6,10,12,14(22)-hexaene-18-carboxylate]
ring closure, isolated yield ([1]; from Cc1cccc(C)c1-c1cc(OC2CNC(=O)CN(C(=O)OC(C)(C)C)C2)nc(NS(=O)(=O)c2cccc(CBr)c2)n1, other bond, NaH, DMF, 19.7 mM, 0.0 °C, 0.5 h): 68%

Ent. A Max Activity (%) ([3]; Enteroid Assay A): +++ (+++ is >600%) | EC50 ([3]; Enteroid Assay A): < 1 µM
SMILES: Cc1cccc(C)c1-c1cc2nc(n1)NS(=O)(=O)c1cccc(c1)C(=O)N1CCN(Cc3ccccc3)C[C@@H](O2)[C@H]1CC(C)C [Compound 84, (16R,21R)-18-Benzyl-12-(2,6-dimethylphenyl)-21-(2-methylpropyl)-15-oxa-8λ^6-thia-1,9,11,18,22-pentaazatetracyclo[14.4.1.13,7.110,14]tricosa-3(23),4,6,10,12,14(22)-hexaene-2,8,8-trione]
ring closure, isolated yield ([1]; from Cc1cccc(C)c1-c1cc(Cl)nc(NS(=O)(=O)c2cccc(C(=O)N3CCN(Cc4ccccc4)C[C@H](O)[C@H]3CC(C)C)c2)n1, snar bond, NaH, DMF, 16.6 mM, 25.0 °C, 72.0 h): 35%

Ent. B Max Activity (%) [2]: ++ (++ is 30-60%) | EC50 [2]: < 1 µM
SMILES: Cc1cccc(C)c1-c1cc2nc(n1)NS(=O)(=O)c1cccc(c1)C(=O)N1C[C@@H](CCCC1CC(C)C)O2 (stereo partly drawn) [Compound 181, (16R)-12-(2,6-Dimethylphenyl)-20-(2-methylpropyl)-15-oxa-8λ^6-thia-1,9,11,22-tetraazatetracyclo[14.4.1.13,7.110,14]tricosa-3(23),4,6,10(22),11,13-hexaene-2,8,8-trione]
ring closure, yield after HPLC (from Cc1cccc(C)c1-c1cc(Cl)nc(NS(=O)(=O)c2cccc(C(=O)N3C[C@H](O)CCCC3CC(C)C)c2)n1, snar bond, 13-membered ring, NaOtBu, THF, 17.5 mM, 25.0 °C, 24.0 h): 4%

EC50 [2]: < 1 µM
SMILES: Cc1cccc(C)c1-c1cc2nc(n1)NS(=O)(=O)c1cccc(c1)C(=O)N1Cc3ccccc3C(CO2)C1 (centres unmarked) [Compound 238, 12-(2,6-Dimethylphenyl)-15-oxa-8λ^6-thia-1,9,11,26-tetraazapentacyclo[15.7.1.13,7.110,14.018,23]heptacosa-3,5,7(27),10(26),11,13,18,20,22-nonaene-2,8,8-trione]
ring closure, yield after HPLC (from Cc1cccc(C)c1-c1cc(OCC2CNCc3ccccc32)nc(NS(=O)(=O)c2cccc(C(=O)O)c2)n1, amide bond, 14-membered ring, HATU/DIEA, DMF/THF, 136.0 mM, 16.0 h, 2 steps): 5%
